Test results: patent US20210052600A1, “THERAPEUTIC AGENTS FOR STRESS URINARY INCONTINENCE AND INCOTINENCE OF FECES” (Takeda Pharmaceutical Company Limited, priority 2017, published 2021)
Read-outs that look alike come from different tables or passages of the source.

What was measured:
[1] = cited from earlier work
[2] = Body weight of obese rats (DIO-F344) under continuous subcutaneous administration and effective plasma concentration; assay type: in vivo, rat; details: for Change in body weight (% change): mean ± SEM
Method: Forty male DIO-F344 rats bred with high fat diet (42 kcal % fat) were used. On the day before surgery, the rats were grouped on the basis of their body weight. Compound A′ and Compound B′ were each dissolved in saline. Osmotic pumps filled with the Compound A′ or Compound B′ solution were subcutaneously implanted in the rats under isoflurane anesthesia. The body weight just after surgery was used as a Pre value, and the body weight was measured every day until 14 days after surgery. Regarding the averages in the body weight on Day 14, the difference in the mean averages of the drug-treated group and the vehicle-treated group was analyzed by the one-tailed Williams' test.
The average Day 14 plasma concentration from the values of each rat measured in the morning and afternoon was used as a plasma concentration for the animal. The rate of change in body weight was calculated from the values measured just after and 14 days after osmotic pump implantation. The rate (average rate) of change of the vehicle group was subtracted from that of each drug-administered rat to plot the plasma concentration and the change in body weight. The plasma concentration at which the drug lowered the body weight by 3.8% was calculated by linear regression analysis.

[3] = tested on: anus-closing functions; test: Rat anus-closing functions (Anal LPP) measured by high speed infusion of saline into the rectum; assay type: in vivo; details: 1 mg/kg i.v.; 5 minutes after administration; mean ± SEM
Description: Thirty six female SD rats were used. After overnight fasting, rats were intraperitoneally administered with urethane for anesthesia, and isoflurane inhalation was further added during surgery. The abdomen was incised to expose the rectum, and a small incision of the rectum was made. A polyethylene catheter (SP61, Natsume) was inserted into the rectum through the rectum incision, and the tip of the catheter was positioned around 5 mm from the anal orifice. The other end of the catheter was connected with a pressure transducer and an infusion pump via three-way stopcocks, and the change in pressure in the rectum was measured using the pressure transducer, an electric signal amplifier, and an analog-to-digital converter. For administrating drugs, a polyethylene catheter (SP45, Natsume) was inserted into the femoral vein after exposing the vein by small incision.
After recovery period from surgery, while saline was infused at a speed of 0.1 mL/sec into the rectum using an infusion pump, change in the measured pressure—was observed. The infusion was stopped when the leakage of the saline from the anal orifice was observed. In the procedure, sudden decrease in the pressure was observed during the infusion with the leakage of saline from the anal orifice. The peak value of the pressure recorded in the rectum during the course of the procedures was defined as “an Anal LPP” in this Example. […] The Anal LPP was again measured in the same way 5 minutes after drug administration. The difference in Anal LPP from the Pre value (increased amount of Anal LPP) was calculated. Regarding change in Anal LPP before and after drug administration, the differences between the mean values of the drug-treated and vehicle-treated groups were analyzed by the one-tailed Williams' test or Student's t-test.

[4] = tested on: urethral resistance; test: Rat urethral resistance (LPP) measured by high speed infusion of saline into the bladder; assay type: in vivo; details: for LPP Post / LPP Increase / LPP Pre: Table 8, mean ± SEM; for LPP Post: 30 minutes after administration; for LPP Increase: Post minus Pre; for LPP Pre: before administration
Description: The rats were anesthetized with isoflurane. Their spinal cord was transected at the T8-T9 (the eighth thoracic cord—the ninth thoracic cord) level. After opening of the bladder dome, two polyethylene tubes (PE-100) were inserted into the bladder. The incised portion of the bladder was closed with sutures, and the other incisions were also closed. The rats were placed in Bollman cages. The catheter for intravesical pressure measurement was connected to a pressure transducer, while the catheter for saline filling was connected to a syringe filled with Evans Blue-dyed saline. Change in intravesical pressure was recorded using the pressure transducer via an electric signal amplifier and an analog-to-digital converter. After recovery of the animals from anesthesia, the intravesical pressure measurement was started, and saline was infused at a speed of 0.1 mL/sec into the bladder using an infusion pump. The infusion was stopped when the leakage of the saline from the urethral orifice was observed. Immediately thereafter, the bladder was emptied by releasing the pressure. In this operation, the peak of recorded intravesical pressure during the saline infusion was used as LPP in this Example. This measurement was repeated, and the average LPP from the last three measurements was used as the LPP value of the trial. The mean from 2 such trials was used as a Pre value. 0.5% MC was used as the vehicle. […] The difference in LPP from the Pre value (increased amount of LPP) was calculated. Regarding change in LPP before and after drug administration, the differences between the mean values of the drug-treated and vehicle-treated groups were analyzed by the one-tailed Williams' test.

[5] = cited from earlier work; remark: listed apart in the source

Q: What does the source list for C[C@H]1CNCCc2ccc(Cl)cc21 [Compound B′, (R)-8-chloro-1-methyl-2,3,4,5-tetrahydro-1H-3-benzazepine]?
A: half-life in blood ([1]; after a single dose of 10 mg): 11.1 h; maximum blood concentration ([1]; after a single dose of 10 mg): 46.0 ng/mL; maximum blood concentration ([1]; immediate release formulation 10 mg once daily (Blossom trial)): 40 ng/mL; maximum blood concentration (Cmax) ([1]; immediate release formulation 10 mg twice daily (Blossom trial)): 56 ng/mL; Change in body weight (% change) ([2]; 0.45 mg/animal/day s.c. osmotic pump, day 3): −0.9 ± 0.2 % change; Change in body weight (% change) ([2]; 0.45 mg/animal/day s.c. osmotic pump, day 7): −1.4 ± 0.5 % change; Change in body weight (% change) ([2]; 0.45 mg/animal/day s.c. osmotic pump, day 10): −3.3 ± 0.4 % change; Change in body weight (% change) ([2]; 0.45 mg/animal/day s.c. osmotic pump, day 14): −3.7 ± 0.6 % change; Change in body weight (% change) ([2]; 1.35 mg/animal/day s.c. osmotic pump, day 3): −1.4 ± 0.3 % change; Change in body weight (% change) ([2]; 1.35 mg/animal/day s.c. osmotic pump, day 7): −2.5 ± 0.5 % change; Change in body weight (% change) ([2]; 1.35 mg/animal/day s.c. osmotic pump, day 10): −4.6 ± 0.3 % change; Change in body weight (% change) ([2]; 1.35 mg/animal/day s.c. osmotic pump, day 14): −5.4 ± 0.2 % change; Change in body weight (% change) ([2]; 4.5 mg/animal/day s.c. osmotic pump, day 3): −3.1 ± 0.6 % change; Change in body weight (% change) ([2]; 4.5 mg/animal/day s.c. osmotic pump, day 7): −4.8 ± 0.9 % change; Change in body weight (% change) ([2]; 4.5 mg/animal/day s.c. osmotic pump, day 10): −7.1 ± 0.7 % change; Change in body weight (% change) ([2]; 4.5 mg/animal/day s.c. osmotic pump, day 14): −8.6 ± 1.0 % change; plasma concentration at which the drug lowered the body weight by 3.8% ([2]; DIO-F344 rats, day 14, vehicle-subtracted, linear regression analysis): 140 ng/mL; Anal LPP Increase [3]: 13.8 ± 5.7 cmH2O; LPP Post ([4]; 1 mg/kg p.o.): 77.0 ± 3.6 cm H2O; LPP Increase ([4]; 1 mg/kg p.o.): 9.0 ± 1.9 cm H2O; LPP Pre ([4]; 1 mg/kg p.o.): 67.9 ± 2.5 cm H2O; LPP Post ([4]; 2.5 mg/kg p.o.): 88.1 ± 3.5 cm H2O; LPP Increase ([4]; 2.5 mg/kg p.o.): 19.6 ± 1.7 cm H2O; LPP Pre ([4]; 2.5 mg/kg p.o.): 68.5 ± 3.8 cm H2O; LPP Post ([4]; 5 mg/kg p.o.): 85.4 ±4.1 cm H2O; LPP Increase ([4]; 5 mg/kg p.o.): 25.1 ± 2.7 cm H2O; LPP Pre ([4]; 5 mg/kg p.o.): 60.2 ± 5.1 cm H2O; LPP10, the dose that increases LPP by 10 cm H2O ([4]; oral administration, high speed saline infusion method): 1.2 mg/kg; patients with adverse events ([5]; 10 mg bid group): 57.9%; subjects with headache ([5]; 10 mg bid group): 32.5%; subjects with nausea ([5]; 10 mg bid group): 8.8%; difference of body weight loss from placebo ([5]; 10 mg once daily (QD) (Blossom trial)): 2.6%; weight loss, difference from placebo group ([5]; obese patients, 10 mg twice daily (Blossom trial)): 3.8%
